Measurements reported in US20230321117A1, “USE OF […] TREATING AN EPILEPSY DISORDER” (MARINUS PHARMACEUTICALS, INC., priority 2020, published 2023).

Tests used:
Type in all cases: in vivo, human
[1] = test system: major motor seizures in patients with CDKL5 deficiency disorder (CDD); assay: Percent change in major motor seizure frequency vs plasma ganaxolone level, phase 3 CDD trial; conditions: back-transformation of log values; CDD participants
Excerpt: (§1) Global, randomized, double-blind, placebo-controlled phase 3 clinical trial to assess the safety and efficacy of adjunctive ganaxolone for the treatment of seizures associated with CDD. Patients aged 2 to 21 years with a pathogenic or likely pathogenic mutation of the CDKL5 gene, neurodevelopmental impairment, and seizures refractory to treatment with at least 2 prior antiseizure medications who experienced at least 16 seizures per 28 days during the 2 months prior to screening were eligible to enroll. Study consisted of a 6-week baseline followed by a 17-week double-blind phase (ganaxolone or placebo, 1:1). The dose of ganaxolone 50 mg/mL suspension was titrated over 4 weeks to 63 mg/kg/day (21 mg/kg TID), not to exceed 1800 mg/d (600 mg TID), or to the maximum tolerated dose. Blood draws for PK analysis were scheduled to occur at visit 3 (week 5), visit 4 (week 9), and visit 5 (week 17).
Mean ganaxolone concentration was calculated for each subject using available results from up to three laboratory determinations during the double-blind phase. Linear regression was conducted using arithmetic- and natural logarithm-transformed percent reduction in major motor seizures (loge [percent reduction+100]) as dependent variable and natural logarithm-transformed mean ganaxolone concentration as the single explanatory variable. […]

[2] = test system: seizure occurrence in presurgical epilepsy participants; assay: Double-blind placebo-controlled study during AED discontinuation with inpatient continuous EEG monitoring; conditions: 500 mg TID or 625 mg TID, up to 8 days; log-rank p=0.08
Experimental: A double-blind, placebo-controlled study that enrolled 52 participants 18-65 years of age undergoing AED discontinuation during inpatient continuous EEG monitoring as part of an evaluation for surgical treatment of epilepsy was performed. Participants were randomized and administered: (i) ganaxolone 500 mg TID, (ii) 625 mg TID, or (iii) matching placebo and treated for up to 8 days. The primary endpoint was difference in the duration of treatment before meeting withdrawal criteria based on seizure occurrence.

[3] = test system: partial-onset (focal) seizures; assay: Phase 2 study in adults with uncontrolled partial-onset (focal) seizures
Experimental: A Phase 2 study was conducted. It enrolled 147 participants 18-69 years of age with a diagnosis of epilepsy with uncontrolled partial-onset (focal) seizures with or without secondary generalization despite being treated with up to 3 AEDs. Participants were randomized to adjunctive placebo (N=49) or GNX liquid suspension (N=98) titrated to a target dose of at 500 mg TID (1500 mg/day) in addition to their baseline AEDs, after which they entered an eight-week prospective baseline period followed by a 10-week double-blind phase. The primary endpoint was the reduction in weekly frequency of focal motor, focal impaired awareness and focal to bilateral tonic-clonic seizures from baseline to the double-blind phase. The prespecified primary analysis was the reduction in mean weekly seizure frequency, with log-transformed rates analyzed using analysis of covariance (ANCOVA). The protocol defined the population for analysis (“Primary Population”) as participants with 10 or fewer seizures/week during the baseline period.

[4] = test system: partial-onset (focal) seizures; assay: Phase 3 trial in adults with focal seizures
Experimental: Based on the results of the phase 2 study, a double-blind, placebo-controlled phase 3 trial in adults with focal seizures was conducted. The study enrolled two cohorts: Cohort 1 was an initial assessment of safety and tolerability of GNX 1200 or 1800 mg/day compared to placebo. Cohort 2, on which the primary efficacy analysis was based, enrolled 359 participants with a diagnosis of epilepsy with uncontrolled partial-onset (focal) seizures with or without secondary generalization who had failed at least two prior AEDs and had been on a stable regimen of one to three AEDs for at least one month. Following an eight-week prospective baseline period during which there were at least three seizures/28 days, participants were randomized to GNX 1800 mg/d (N=179) or placebo (N=180). The primary endpoint was the percent change in 28-day frequency of focal motor, focal impaired awareness and focal to bilateral tonic-clonic seizures from baseline to the double-blind phase. The primary efficacy analysis was a rank ANCOVA based on the modified intent-to-treat (mITT) population, defined as randomized participants who had taken at least one dose of study drug and provided post-baseline seizure data.

[5] = Plasma ganaxolone concentration in phase 3 CDD trial (PK/PD analysis)
Excerpt: as §1
Mean ganaxolone concentration was calculated for each subject using available results from up to three laboratory determinations during the double-blind phase. Linear regression was conducted using arithmetic- and natural logarithm-transformed percent reduction in major motor seizures (loge [percent reduction+100]) as dependent variable and natural logarithm-transformed mean ganaxolone concentration as the single explanatory variable. Regression diagnostics included examination of residual and normal probability plots and determination of outliers and influential values. Cases with standardized residuals >2 or <−2 were excluded from the model and the regression was repeated.
The resulting sample was utilized in determination of a Pearson correlation coefficient (using log-transformed values). Additionally, percent seizure reduction was compared in three tertiles representing low (N=13), medium (N=13) and high (N=12) mean per subject ganaxolone concentrations using a Kruskal-Wallis test.

CC(=O)[C@H]1CC[C@H]2[C@@H]3CC[C@H]4C[C@](C)(O)CC[C@]4(C)[C@H]3CC[C@]12C [ganaxolone]
seizure reduction predicted at plasma concentration of approximately 100 ng/mL [1]: approximately 40% | duration of treatment before meeting withdrawal criteria based on seizure occurrence, relative to placebo [2]: longer duration of treatment prior to study withdrawal | median percent reduction in seizure frequency ([3]; ITT population, 1500 mg/day TID, p=0.014 vs placebo): 25.9% | net reduction in weekly seizure frequency compared to placebo ([3]; ITT population, p=0.049): 11.4% | Median % reduction GNX ([3]; Phase 2, 1500 mg/d, TID, N 98): 25.9% | net reduction in weekly seizure frequency compared to placebo ([3]; Primary Population (10 or fewer seizures/week at baseline), p=0.042): 11.8% | weekly seizure frequency during the double-blind phase ([3]; Primary Population, 500 mg TID liquid suspension, adjunctive, baseline 3.13): 2.70 | Median % reduction GNX ([4]; Phase 3, 1800 mg/d, BID, N 179): 21.3% | percent reduction in seizure frequency from baseline period to double-blind phase ([4]; mITT, Cohort 2, 1800 mg/d, 28-day frequency, p=0.179 vs placebo): 21.3% | clinical endpoint outcome ([4]; oral 1800 mg daily (900 mg twice a day), adults with focal seizures): clinical endpoint was not achieved | Mean GNX level ([5]; High GNX level tertile (n = 12)): 172.6 ng/mL | Mean GNX level ([5]; Low GNX level tertile (n = 13)): 40.2 ng/mL | Mean GNX level ([5]; Medium GNX level tertile (n = 13)): 72.3 ng/mL
